Test results as given in PubChem BioAssay AID1963451 (Molecular Pharmacology Branch, DTP, NCI, 2024).

Test system: 521955-158-R6-J3-PDC complex spheroid growth, % test/control
Experiment: Anticancer human tumor 521955-158-R6-J3-PDC patient-derived pancreatic carcinoma cell line growth inhibition [Asc]
Conditions: for IC50: curve of first compound; for viability, T/C: stronger effect = lower value
Description: Multicellular complex tumor spheroid response to apoptosis pathway targeting inhibitors Alrizomadlin, Pelcitoclax, and Dasminapant in combination with a variety of drugs and investigational agents in selected tumor cell lines
The MDM2 inhibitor alrizomadlin, the Bcl-2/Bcl-xL inhibitor pelcitoclax, and the IAPs inhibitor dasminapant were evaluated both individually and in combination with standard of care and investigational anticancer small molecules within a complex spheroid model of solid tumors. . Complex spheroids include a stromal component modeled by human endothelial cells (HUVEC) and fibroblasts modeled by human mesenchymal stem cells (MSCs). The concentration ranges selected for each drug and investigational agent were based upon clinically achievable concentrations if the clinical Cmax of the agent was known.
Compounds. The drugs and investigational agents: alrizomadlin (APG-115; NSC831270), pelcitoclax (APG-1252; NSC835773), dasminapant (APG-1387;NSC834197), TAK-243 (NSC785004), copanlisib (NSC809693), olaparib (NSC753686), talazoparib (NSC767125), cobimetinib (NSC 768068), eltanexor (KPT-8602, NSC 794443), abemaciclib (NSC 768073), sotorasib (NSC818433), adagrasib (NSC 831453), MRTX-1133 (NSC 836407), Iadademestat (ORY1001, NSC 806812), and RMC-4630 (NSC839698), were obtained from the NCI Developmental Therapeutics Program Chemical Repository. The FDA-approved anticancer drug set is available from the Developmental Therapeutics Program at https://dtp.cancer.gov/organization/dscb/obtaining/available plates.htm. […] The stock solutions were prepared in dimethyl sulfoxide (DMSO, Sigma-Aldrich, St. Louis, MO, cat. D2650) at 800-fold the tested concentration and stored at -70 degrees C prior to their use. All drugs and investigational agents were tested over a range starting from a high concentration at or near the clinical Cmax and decreasing in half-log increments. If the clinical Cmax for an agent had not been determined, the highest concentration tested was 10 microM.
The patient-derived cancer (PDC) cell lines include five colon adenocarcinomas: 186277-243-T-J2-PDC, 616215-338-R-J1-PDC, 439559-082-T-J2-PDC, 463943-066-T-J2-PDC, and 519858-162-T-J1-PDC; three pancreatic carcinomas: 323965-272-R-J2-PDC, 521955-158-R6-J3-PDC, and 521955-158-R2-J5-PDC; two uterine sarcomas: 327498-152-R-J2-PDC and 993429-296-R-J1-PDC; two rhabdomyosarcomas: 755483-174-R-J1-PDC and 772245-204-R-J1-PDC; two soft tissue sarcomas: 126254-015-R-J1-PDC and 494315-158-R-J1-PDC; two malignant fibrous histiocytomas: 317291-083-R-J1-PDC and 596521-263-R-J1-PDC; two breast carcinomas: 171881-019-R-J1-PDC and 885512-296-R-J2-PDC; and one ovarian carcinoma: 6556581-035-R-J-PDC were obtained from the NCI PDMR, (https://pdmr.cancer.gov). The established cell lines HSSY-2 synovial sarcoma (RRID:CVCL 8719), SYO-1 synovial sarcoma (RRID:CVCL_7146), MPNST malignant peripheral neural sheath tumor were obtained from the Sloan Kettering Institute. The following established cell lines were purchased from the American Type Culture Collection (ATCC, Manassas, VA), Sor the received from the NCI repository:, PANC-1 pancreatic carcinoma (CRL-1469, RRID:CVCL_0480), OVCAR-5 ovarian carcinoma (RRID:CVCL_1628), OVCAR-8 ovarian carcinoma (RRID:CVCL_1629), , MCF-7 breast carcinoma (CRL-12584, RRID:CVCL_0031), MDA-MB-231 breast carcinoma (CRL-12532, RRID:CVCL_0062), NCI-H1876 small cell lung carcinoma (CRL-5902, RRID:CVCL_1503), NCI-H510A small cell lung carcinoma (HTB-184, RRID:CVCL_1565), NCI-H1417 (CRL-5869, RRID:CVCL_1469), and NCI-H196 small cell lung carcinoma (CRL-5823, RRID:CVCL_1509). Dr. Peter Houghton (Greehey Children's Cancer Research Institute, University of Texas Health Science Center, San Antonio, TX) provided Rh-18 rhabdomyosarcoma (RRID:CVCL_1659). Pooled donor human umbilical vein endothelial cells (HUVEC, Lonza, cat. CC-2519) and human mesenchymal stem cells (hMSC, Lonza, cat. PT-2501) were purchased from Lonza (Walkersville, MD).
Cell Culture. […]

[1] = second compound 0.00316 µM, first compound 0.00316 µM
[2] = second compound 0.00316 µM, first compound 0.01 µM
[3] = second compound 0.00316 µM, first compound 0.0316 µM
[4] = second compound 0.00316 µM, first compound 0.1 µM
[5] = second compound 0.01 µM, first compound 0.00316 µM
[6] = second compound 0.01 µM, first compound 0.01 µM
[7] = second compound 0.01 µM, first compound 0.0316 µM
[8] = second compound 0.01 µM, first compound 0.1 µM
[9] = second compound 0.0316 µM, first compound 0.00316 µM
[10] = second compound 0.0316 µM, first compound 0.01 µM
[11] = second compound 0.0316 µM, first compound 0.0316 µM
[12] = second compound 0.0316 µM, first compound 0.1 µM
[13] = second compound 0.1 µM, first compound 0.00316 µM
[14] = second compound 0.1 µM, first compound 0.01 µM
[15] = second compound 0.1 µM, first compound 0.0316 µM
[16] = second compound 0.1 µM, first compound 0.1 µM
[17] = second compound 0.316 µM, first compound 0.00316 µM
[18] = second compound 0.316 µM, first compound 0.01 µM
[19] = second compound 0.316 µM, first compound 0.0316 µM
[20] = second compound 0.316 µM, first compound 0.1 µM
[21] = second compound 1 µM, first compound 0.00316 µM
[22] = second compound 1 µM, first compound 0.01 µM
[23] = second compound 1 µM, first compound 0.0316 µM
[24] = second compound 1 µM, first compound 0.1 µM
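Further: spheroids exposed to compounds for 7 days.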
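Wherever viability, T/C is given: 100% = DMSO vehicle control wells.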

Compound: Cn1ncnc1[C@H]1c2n[nH]c(=O)c3cc(F)cc(c23)N[C@@H]1c1ccc(F)cc1 + CNC(C)C(=O)NC1CN(S(=O)(=O)c2cccc(S(=O)(=O)N3CCC4CCC(C(=O)NC(c5ccccc5)c5ccccc5)N4C(=O)C(NC(=O)C(C)NC)C3)c2)CCC2CCC(C(=O)NC(c3ccccc3)c3ccccc3)N2C1=O
- IC50 (second compound 0.00316 µM): > 0.1 µM
- IC50 (second compound 0.01 µM): > 0.1 µM
- IC50 (second compound 0.0316 µM): > 0.1 µM
- IC50 (second compound 0.1 µM): > 0.1 µM
- IC50 (second compound 0.316 µM): > 0.1 µM
- IC50 (second compound 1 µM): > 0.1 µM
- viability, T/C (second compound 0.00316 µM, first compound 0.000316 µM): 188%
- viability, T/C (second compound 0.00316 µM, first compound 0.001 µM): 151%
- viability, T/C [1]: 151%
- viability, T/C [2]: 159%
- viability, T/C [3]: 163%
- viability, T/C [4]: 140%
- viability, T/C (second compound 0.01 µM, first compound 0.000316 µM): 154%
- viability, T/C (second compound 0.01 µM, first compound 0.001 µM): 171%
- viability, T/C [5]: 142%
- viability, T/C [6]: 146%
- viability, T/C [7]: 153%
- viability, T/C [8]: 161%
- viability, T/C (second compound 0.0316 µM, first compound 0.000316 µM): 96.4%
- viability, T/C (second compound 0.0316 µM, first compound 0.001 µM): 79.9%
- viability, T/C [9]: 93.6%
- viability, T/C [10]: 74.6%
- viability, T/C [11]: 76.9%
- viability, T/C [12]: 92.1%
- viability, T/C (second compound 0.1 µM, first compound 0.000316 µM): 93.2%
- viability, T/C (second compound 0.1 µM, first compound 0.001 µM): 79.2%
- viability, T/C [13]: 85.6%
- viability, T/C [14]: 83%
- viability, T/C [15]: 87.4%
- viability, T/C [16]: 78.2%
- viability, T/C (second compound 0.316 µM, first compound 0.000316 µM): 84.8%
- viability, T/C (second compound 0.316 µM, first compound 0.001 µM): 72.6%
- viability, T/C [17]: 83.3%
- viability, T/C [18]: 87.1%
- viability, T/C [19]: 89.3%
- viability, T/C [20]: 84.1%
- viability, T/C (second compound 1 µM, first compound 0.000316 µM): 73.3%
- viability, T/C (second compound 1 µM, first compound 0.001 µM): 74.9%
- viability, T/C [21]: 83.9%
- viability, T/C [22]: 74.7%
- viability, T/C [23]: 87.8%
- viability, T/C [24]: 83.2%

Compound: CCN1CCN(Cc2ccc(Nc3ncc(F)c(-c4cc(F)c5nc(C)n(C(C)C)c5c4)n3)nc2)CC1 + CNC(C)C(=O)NC1CN(S(=O)(=O)c2cccc(S(=O)(=O)N3CCC4CCC(C(=O)NC(c5ccccc5)c5ccccc5)N4C(=O)C(NC(=O)C(C)NC)C3)c2)CCC2CCC(C(=O)NC(c3ccccc3)c3ccccc3)N2C1=O
- IC50 (second compound 0.00316 µM): > 1 µM
- IC50 (second compound 0.01 µM): > 1 µM
- IC50 (second compound 0.0316 µM): > 1 µM
- IC50 (second compound 0.1 µM): > 1 µM
- IC50 (second compound 0.316 µM): > 1 µM
- IC50 (second compound 1 µM): > 1 µM
- viability, T/C [1]: 174%
- viability, T/C [2]: 141%
- viability, T/C [3]: 140%
- viability, T/C [4]: 153%
- viability, T/C (second compound 0.00316 µM, first compound 0.316 µM): 136%
- viability, T/C (second compound 0.00316 µM, first compound 1 µM): 120%
- viability, T/C [5]: 94.2%
- viability, T/C [6]: 76.4%
- viability, T/C [7]: 86.1%
- viability, T/C [8]: 75.9%
- viability, T/C (second compound 0.01 µM, first compound 0.316 µM): 74.9%
- viability, T/C (second compound 0.01 µM, first compound 1 µM): 86.4%
- viability, T/C [9]: 103%
- viability, T/C [10]: 82.1%
- viability, T/C [11]: 73.6%
- viability, T/C [12]: 83.4%
- viability, T/C (second compound 0.0316 µM, first compound 0.316 µM): 83.6%
- viability, T/C (second compound 0.0316 µM, first compound 1 µM): 92.1%
- viability, T/C [13]: 107%
- viability, T/C [14]: 114%
- viability, T/C [15]: 102%
- viability, T/C [16]: 75.9%
- viability, T/C (second compound 0.1 µM, first compound 0.316 µM): 88.2%
- viability, T/C (second compound 0.1 µM, first compound 1 µM): 100%
- viability, T/C [17]: 87.4%
- viability, T/C [18]: 78.8%
- viability, T/C [19]: 71%
- viability, T/C [20]: 66.5%
- viability, T/C (second compound 0.316 µM, first compound 0.316 µM): 67.1%
- viability, T/C (second compound 0.316 µM, first compound 1 µM): 71%
- viability, T/C [21]: 86.3%
- viability, T/C [22]: 81.3%
- viability, T/C [23]: 71.8%
- viability, T/C [24]: 72.8%
- viability, T/C (second compound 1 µM, first compound 0.316 µM): 77.3%
- viability, T/C (second compound 1 µM, first compound 1 µM): 83.9%
